Results from US9956187B2 (priority 2014, dated 2018).
Counter-ions that a name gives are not always drawn.

Key:
[1] = target: kappa opioid receptor (Homo sapiens, UniProt P41145); format: binding; parameters: expressed in transfected cells; settings: mean±SE; read-out: Ki KOR
Method: (§1) The secondary binding assay was performed only when the inhibition in the primary screen was over 50%. A secondary binding assay was utilized to determine the binding affinity for the identified receptor.
(§2) 50 μL of a crude membrane fraction of cells expressing the respective receptors were applied to each well. Reaction incubation, harvesting and radioactivity measurement from the primary assay were repeated. Affinity is expressed as pKi (−log Ki).

[2] = target: T1, human cloned SERT (Homo sapiens, UniProt P31645); experiment: Serotonin reuptake assay in HEK 293 cells; format: cell-based; settings: mean±SE
T1 construct: expressed in transfected cells
Method: (§3) In brief, Human Embryonic Kidney 293 cells were plated in Poly-L-Lys (PLL) coated 384-well black clear bottom cell culture plates in DMEM+1% dFBS, at a density of 15,000 cells per well in a total volume of 40 μl. The cells were incubated for a minimum of 6 hours before use in the assays. The medium was removed and 20 μL of assay buffer (20 mM HEPES, 1×HBSS, pH 7.40) was added, followed by 5 μL of 5× drug solutions. The plate was incubated at 37° C. for 30 min. After the incubation, 25 μL of dye solution was added and fluorescence intensity was measured after […] at 37° C., using FlexStation II (bottom read mode, Excitation at 440 nm, Emission at 520 nm with 510 nm cut-off) from the Molecular Devices. […] The half maximal inhibitory concentration were determined and expressed as pIC50 (pIC50=−log (IC50)).

[3] = Solubility in 20% cyclodextrin by HPLC; format: physicochemical; settings: aqueous with cosolvent or surfactant or cyclodextrin, thermodynamic from solid, room temperature
Text: It was filtered with 0.2 μm PTFE syringe filter after stirring for 24 hrs.

[4] = tested on: morphine dependent rats; experiment: Astrocyte activation in nucleus accumbens; format: in vivo, rat
[5] = tested on: BZP Rat Brain Site; settings: primary binding, dezocine 10 μM
Method: (§4) Evidence for interaction was based on the inhibition of the reference ligand-binding signal. […] Briefly, 50 μL aliquots of radioactive ligand (5 nM) were added to wells of a 96-well plate, which contained 25 μL of the reference or test ligands. We employed transfected cell lines expressing mainly human (unless otherwise specified) recombinant receptors, monoamine transporters, or ion channels for crude membrane preparation. Detailed information about our membrane preparation is well known in the art and can be obtained from publicly available protocol online. Crude membrane fractions containing the receptors were resuspended in standard binding buffer and 50 μL aliquots added to each well. The reactions were incubated at room temperature for 1.5 hours to allow for radioligand binding equilibration. Bound radioactivity was harvested by rapid filtration through a 0.3% polyethyleneimine-treated, 96-well filter mats using a 96-well Filtermate harvester. The dried filters were treated with melted scintillant and a Microbeta scintillation counter was utilized to measure the radioactivity retained on the filter.

[6] = target: T2, human cloned NET (Homo sapiens, UniProt P23975); experiment: Norepinephrine reuptake assay in HEK 293 cells; format: cell-based; settings: mean±SE
T2 construct: expressed in transfected cells
Method: as §3

[7] = target: T3, serotonin transporter (SERT) (Homo sapiens, UniProt P31645); experiment: Secondary radioligand binding assay (affinity)
T3 construct: expressed in transfected cells
Method: as §1, §2

[8] = target: T4, norepinephrine transporter (NET) (Homo sapiens, UniProt P23975); experiment: Secondary radioligand binding assay (affinity); settings: mean±SE
T4 construct: expressed in transfected cells
Method: as §1, §2

[9] = target: T5, delta opioid receptor (Homo sapiens, UniProt P41143); experiment: Secondary radioligand binding assay (affinity); settings: mean±SE; read-out: Ki DOR
T5 construct: expressed in transfected cells
Method: as §1, §2

[10] = target: T6, H1 (Homo sapiens, UniProt P35367); experiment: biochemical; format: binding
T6 construct: expressed in transfected cells
Method: as §4

[11] = target: T7, MOR (Homo sapiens, UniProt P35372); experiment: biochemical; format: binding
T7 construct: expressed in transfected cells
Method: as §4

[12] = target: T8, KOR (Homo sapiens, UniProt P41145); experiment: biochemical; format: binding
T8 construct: expressed in transfected cells
Method: as §4

[13] = Solubilizing dezocine in formulations
Text: All further solutions were created at about pH 4. […] No higher concentrations were attempted with this formulation.

[14] = target: T9, Alpha2A (Homo sapiens, UniProt P08913); experiment: Primary radioligand binding screen
T9 construct: expressed in transfected cells
Method: as §4

[15] = target: T10, M1 (Homo sapiens, UniProt P11229); experiment: Primary radioligand binding screen
T10 construct: expressed in transfected cells
Method: as §4

[16] = target: T11, 5-hT5A (Homo sapiens, UniProt P47898); experiment: Primary radioligand binding screen
T11 construct: expressed in transfected cells
Method: as §4

[17] = target: T12, 5-HT3 (Homo sapiens, UniProt P46098); experiment: Primary radioligand binding screen
T12 construct: expressed in transfected cells
Method: as §4

[18] = target: T13, D5 (Homo sapiens, UniProt P21918); experiment: Primary radioligand binding screen
T13 construct: expressed in transfected cells
Method: as §4

[19] = target: T14, NET (Homo sapiens, UniProt P23975); experiment: Primary radioligand binding screen
T14 construct: expressed in transfected cells
Method: as §4

[20] = target: T15, 5-HT2B (Homo sapiens, UniProt P41595); experiment: Primary radioligand binding screen
T15 construct: expressed in transfected cells
Method: as §4

T3 sequence (P31645 whole entry): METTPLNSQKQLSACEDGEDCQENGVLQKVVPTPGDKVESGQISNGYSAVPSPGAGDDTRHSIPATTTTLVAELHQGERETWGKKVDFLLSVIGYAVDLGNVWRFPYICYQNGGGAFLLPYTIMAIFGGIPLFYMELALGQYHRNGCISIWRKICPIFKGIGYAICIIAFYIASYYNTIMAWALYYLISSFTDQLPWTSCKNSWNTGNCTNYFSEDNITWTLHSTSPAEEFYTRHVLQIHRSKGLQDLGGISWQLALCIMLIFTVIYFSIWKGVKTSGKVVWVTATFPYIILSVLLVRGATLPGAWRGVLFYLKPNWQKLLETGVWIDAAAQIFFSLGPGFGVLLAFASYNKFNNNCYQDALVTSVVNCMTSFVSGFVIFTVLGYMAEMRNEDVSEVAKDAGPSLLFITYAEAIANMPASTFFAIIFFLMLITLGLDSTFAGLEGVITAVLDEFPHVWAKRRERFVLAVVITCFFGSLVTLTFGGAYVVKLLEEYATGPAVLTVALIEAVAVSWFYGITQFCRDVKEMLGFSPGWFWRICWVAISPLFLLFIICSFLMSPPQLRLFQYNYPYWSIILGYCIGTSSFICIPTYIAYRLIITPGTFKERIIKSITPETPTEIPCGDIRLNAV
T5 sequence (P41143 whole entry): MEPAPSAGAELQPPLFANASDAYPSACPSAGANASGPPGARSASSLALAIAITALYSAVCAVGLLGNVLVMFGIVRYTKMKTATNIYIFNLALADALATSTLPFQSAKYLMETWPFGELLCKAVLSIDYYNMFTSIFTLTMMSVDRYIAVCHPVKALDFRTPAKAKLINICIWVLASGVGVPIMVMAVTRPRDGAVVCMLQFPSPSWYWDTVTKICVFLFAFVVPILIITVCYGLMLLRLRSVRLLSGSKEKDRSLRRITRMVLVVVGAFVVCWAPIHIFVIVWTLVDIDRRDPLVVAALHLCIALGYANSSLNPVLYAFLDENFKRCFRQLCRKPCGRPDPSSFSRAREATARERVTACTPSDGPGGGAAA
T9 sequence (P08913 whole entry): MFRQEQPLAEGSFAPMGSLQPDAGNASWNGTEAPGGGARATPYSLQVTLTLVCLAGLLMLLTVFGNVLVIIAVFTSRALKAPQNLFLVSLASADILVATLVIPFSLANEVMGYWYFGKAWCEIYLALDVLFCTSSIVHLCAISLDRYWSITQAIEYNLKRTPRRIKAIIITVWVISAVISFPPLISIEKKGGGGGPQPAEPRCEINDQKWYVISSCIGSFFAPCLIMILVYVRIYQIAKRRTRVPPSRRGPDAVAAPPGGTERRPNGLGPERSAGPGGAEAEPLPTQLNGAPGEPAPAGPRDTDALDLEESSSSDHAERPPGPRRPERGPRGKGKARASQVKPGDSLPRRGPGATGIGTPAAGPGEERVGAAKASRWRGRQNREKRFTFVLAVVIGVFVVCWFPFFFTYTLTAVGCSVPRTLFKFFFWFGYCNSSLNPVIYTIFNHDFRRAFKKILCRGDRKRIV
T11 sequence (P47898 whole entry): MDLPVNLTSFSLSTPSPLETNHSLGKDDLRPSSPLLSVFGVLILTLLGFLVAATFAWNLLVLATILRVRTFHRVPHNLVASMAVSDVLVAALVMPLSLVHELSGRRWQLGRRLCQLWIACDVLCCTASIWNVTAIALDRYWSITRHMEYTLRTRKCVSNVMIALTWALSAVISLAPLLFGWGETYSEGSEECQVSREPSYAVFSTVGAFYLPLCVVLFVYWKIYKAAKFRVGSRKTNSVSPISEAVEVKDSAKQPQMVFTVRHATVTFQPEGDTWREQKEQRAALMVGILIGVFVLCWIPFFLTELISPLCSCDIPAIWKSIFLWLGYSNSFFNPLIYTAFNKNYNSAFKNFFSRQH
Chain of kappa opioid receptor (P41145 whole entry): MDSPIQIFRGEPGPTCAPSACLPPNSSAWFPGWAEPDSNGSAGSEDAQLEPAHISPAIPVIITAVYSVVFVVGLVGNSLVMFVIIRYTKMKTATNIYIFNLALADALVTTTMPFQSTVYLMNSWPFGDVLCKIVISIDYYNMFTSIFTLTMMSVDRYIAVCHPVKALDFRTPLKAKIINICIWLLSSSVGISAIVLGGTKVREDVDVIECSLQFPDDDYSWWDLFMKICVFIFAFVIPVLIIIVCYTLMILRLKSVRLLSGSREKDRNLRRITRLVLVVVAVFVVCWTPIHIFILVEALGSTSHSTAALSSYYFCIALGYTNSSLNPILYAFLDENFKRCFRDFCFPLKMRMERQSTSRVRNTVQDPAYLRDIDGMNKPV
T8 sequence (P41145 whole entry): as above
T10 sequence (P11229 whole entry): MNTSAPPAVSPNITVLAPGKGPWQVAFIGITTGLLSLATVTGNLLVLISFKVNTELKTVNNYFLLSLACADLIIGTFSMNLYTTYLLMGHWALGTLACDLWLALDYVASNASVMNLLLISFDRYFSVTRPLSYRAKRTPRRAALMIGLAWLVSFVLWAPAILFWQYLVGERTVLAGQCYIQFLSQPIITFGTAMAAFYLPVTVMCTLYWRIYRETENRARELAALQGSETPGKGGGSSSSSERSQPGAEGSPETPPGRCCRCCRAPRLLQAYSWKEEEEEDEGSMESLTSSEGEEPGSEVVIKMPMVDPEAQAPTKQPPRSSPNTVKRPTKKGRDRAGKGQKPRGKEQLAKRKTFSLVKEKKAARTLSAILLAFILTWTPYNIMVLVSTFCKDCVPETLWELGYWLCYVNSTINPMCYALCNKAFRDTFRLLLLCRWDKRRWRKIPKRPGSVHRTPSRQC
T7 sequence (P35372 whole entry): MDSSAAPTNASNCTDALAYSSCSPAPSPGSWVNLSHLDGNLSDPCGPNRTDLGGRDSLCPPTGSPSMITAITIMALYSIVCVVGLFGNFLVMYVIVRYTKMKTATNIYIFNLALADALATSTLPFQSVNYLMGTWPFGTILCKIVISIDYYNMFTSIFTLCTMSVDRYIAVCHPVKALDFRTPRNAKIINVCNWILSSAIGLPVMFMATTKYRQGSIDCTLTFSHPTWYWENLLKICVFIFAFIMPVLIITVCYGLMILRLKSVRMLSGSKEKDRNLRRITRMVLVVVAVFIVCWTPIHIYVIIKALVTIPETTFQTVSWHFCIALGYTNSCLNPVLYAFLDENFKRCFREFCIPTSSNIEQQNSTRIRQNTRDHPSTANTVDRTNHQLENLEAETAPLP
T12 sequence (P46098 24-478): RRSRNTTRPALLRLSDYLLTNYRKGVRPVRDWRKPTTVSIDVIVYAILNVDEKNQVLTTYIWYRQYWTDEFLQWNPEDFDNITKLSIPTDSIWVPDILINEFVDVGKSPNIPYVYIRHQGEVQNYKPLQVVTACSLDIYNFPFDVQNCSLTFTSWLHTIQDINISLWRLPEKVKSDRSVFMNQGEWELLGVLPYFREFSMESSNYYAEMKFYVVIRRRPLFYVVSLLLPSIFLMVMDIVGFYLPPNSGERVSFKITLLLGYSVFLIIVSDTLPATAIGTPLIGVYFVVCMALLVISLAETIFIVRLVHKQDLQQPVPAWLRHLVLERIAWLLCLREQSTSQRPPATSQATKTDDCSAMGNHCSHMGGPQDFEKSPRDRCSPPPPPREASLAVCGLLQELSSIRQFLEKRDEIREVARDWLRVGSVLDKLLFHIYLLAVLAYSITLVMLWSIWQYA
T1 sequence (P31645 whole entry): as the sequence (P31645 whole entry) above
T4 sequence (P23975 whole entry): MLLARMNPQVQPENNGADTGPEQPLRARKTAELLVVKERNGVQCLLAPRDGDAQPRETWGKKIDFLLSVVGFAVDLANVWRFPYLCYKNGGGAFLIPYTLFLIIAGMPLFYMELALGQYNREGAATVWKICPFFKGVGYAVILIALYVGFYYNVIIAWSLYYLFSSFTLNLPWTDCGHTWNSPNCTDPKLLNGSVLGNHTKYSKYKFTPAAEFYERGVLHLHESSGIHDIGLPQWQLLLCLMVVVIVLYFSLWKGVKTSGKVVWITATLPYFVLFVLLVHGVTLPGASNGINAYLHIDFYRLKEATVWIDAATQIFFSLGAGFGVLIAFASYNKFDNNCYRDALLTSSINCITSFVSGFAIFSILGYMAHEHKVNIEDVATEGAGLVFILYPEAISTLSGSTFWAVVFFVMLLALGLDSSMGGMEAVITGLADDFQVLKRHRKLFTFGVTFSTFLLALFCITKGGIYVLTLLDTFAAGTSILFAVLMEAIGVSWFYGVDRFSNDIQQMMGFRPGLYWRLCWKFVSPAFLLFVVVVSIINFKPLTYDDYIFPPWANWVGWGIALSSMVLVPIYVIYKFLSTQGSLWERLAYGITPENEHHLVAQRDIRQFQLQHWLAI
T14 sequence (P23975 whole entry): as above
T2 sequence (P23975 whole entry): as above

C[C@@]12CCCCC[C@@H](Cc3ccc(O)cc31)[C@@H]2N [Dezocine, (−)-13β-amino-5,6,7,8,9,10,11,12-octahydro-5α-methyl-5,11-methanobenxocyclodecen-31-ol, hydrobromide]
Ki [1]: 31.9 ± 1.9 nM
pIC50 of SERT (serotonin reuptake) [2]: 5.86±0.17
solubility at 24 h ([3]; 20% 2-Hydroxypropyl-β-cyclodextrin (HPBCD)): 18 ± 1 mg/mL
solubility at 24 h ([3]; 20% 2-Hydroxypropyl-γ-cyclodextrin (HPGCD)): 24 ± 1 mg/mL
astrocyte activation in nucleus accumbens [4]: significantly inhibited
% inhibition [5]: 11.5%
pIC50 at NET (norepinephrine reuptake) [6]: 5.68±0.11
Ki ([7]; FIG. 12): 111 nM
pKi SERT ([7]; mean±SE): 6.96±0.08
pKi NET [8]: 6.00±0.10
Ki [9]: 527 ± 70 nM
inhibition at 10 µM [10]: 20.7%
inhibition at 10 µM [11]: 89.6%
inhibition at 10 µM [12]: 91.3%
Maximum Dezocine Concentration ([13]; 31% Propylene Glycol, 1% Lactic Acid, highest concentration attempted): 30 mg/mL
solubility ([13]; 31% propylene glycol, 6% PVOH solution, pH 4, aqueous with cosolvent or surfactant or cyclodextrin): 10 mg/mL
Maximum Dezocine Concentration ([13]; 50% Propylene Glycol): 2 mg/mL
Maximum Dezocine Concentration ([13]; Ethanol (200-proof), highest concentration attempted): 1 mg/mL
Maximum Dezocine Concentration ([13]; Propylene Glycol (pure)): 10 mg/mL
Maximum Dezocine Concentration ([13]; Water): insoluble
solubility ([13]; water): < 1 mg/mL
inhibition at 10 µM [14]: 40.9%
inhibition at 10 µM [15]: -6.8%
inhibition at 10 µM [16]: 3.4%
inhibition at 10 µM [17]: 11.8%
inhibition at 10 µM [18]: -6.3%
inhibition at 10 µM [19]: 86.4%
inhibition at 10 µM [20]: -11.9%
